Source: patent US6482805B2 (Parker Hughes Institute, priority 1998, dated 2002)
Where two headings read alike, the source gives them in different places.

Key:
human sperm [1] = test: cells; assay type: cell-based
Description: All donor specimens were obtained after informed consent and in compliance with the guidelines of the Hughes Institute Institutional Review Board. To evaluate the spermicidal effects of ZDV derivatives, highly motile fraction of pooled donor sperm (n 8) were prepared from liquefied normospermic semen by discontinuous (90-45%) gradient centrifugation using Enhance-S-Plus (Conception technologies, San Diego, Calif.) cell isolation medium as previously described. [D'Cruz O J, et al., Biol Reprod 1999; 60:1419-1428; D'Cruz O J, et al., Biol Reprod 1995; 53:118-1130; and D'Cruz O J, et al., Biol Reprod 1998; 58:1515-1526]. The resulting pellet was washed twice and resuspended in 1-ml of Biggers, Whitten, and Whittingam's medium (BWW) (Irvine Scientific, Santa Ana, Calif.) containing 3% BSA (fraction V; Sigma Chemical Co., St. Louis, Mo.). One-ml aliquots of the sperm suspension were centrifuged (500× g, 5 min) and incubated at 45° for 90 min at 37° C. in 5% CO2 atmosphere. The supernatant containing primarily motile sperm was aspirated carefully, washed once in BWW medium containing 25 mM HEPES and 0.3% BSA and resuspended in the same medium. Pooled motile sperm (=10×10^6/ml) prepared from 3-5 donors were suspended in 1-ml of BWW-0.3% BSA in the presence and absence of serial 2-fold dilutions of test substance (1.9 μm to 500 μM) in 0.5% dimethyl sulfoxide (DMSO). The stock solutions of synthetic compounds were prepared in DMSO (100 mM) and diluted in medium to yield the desired concentrations. A corresponding volume of DMSO (0.5%) was added to control tubes. After 3 hour incubation at 37° C., the percentage of motile sperm was evaluated by computer-assisted sperm motion analysis (CASA) [D'Cruz O J, et al., Biol Reprod 1998; 58:1515-1526; D'Cruz O J, et al., Mol Hum Reprod 1998; 4:683-693; D'Cruz O J, et al., Biol Reprod 1999; 60:435-444]. The percentage motilities were compared with those of sham-treated control suspensions of motile sperm. The spermicidal activity of test compounds was expressed as the mean EC50 values (the final concentration of the compound in the medium that decreases the proportion of motile sperm by 50%) calculated from three independent experiments.
For CASA, 4 μl of each sperm suspension were loaded into a 20-μm Microcell chamber at 37° C. Eight to ten fields per chamber were scanned for analysis using a Hamilton Thome Integrated Visual Optical System (IVOS), version 10 instrument (Hamilton Thome Research Inc., Danvers, Mass.) [see, D'Cruz O J, et al. Biol Reprod 1998; 58:1515-1526; and D'Cruz O J, et al., Mol Hum Reprod 1998; 4:683-693; and D'Cruz O J, et al., Biol Reprod 1999; 60:435-444]. Each field was recorded for 30 sec. The computer calibrations were set at 30 frames at a frame rate of 30/s. Other settings were as follows: minimum contrast 8; minimum size 6; low-size gate, 1.0; high-size gate, 2.9; low-intensity gate, 0.6; high-intensity gate, 1.4; phase-contrast illumination; low path velocity at 10 μm/s, and threshold straightness at 80%; magnification factor, 1.95.
The sperm kinematic parameters that were determined included numbers of motile (MOT) and progressively (PRG) motile sperm; curvilinear velocity (VCL; a measure of the total distance traveled by a given sperm during the acquisition divided by the time elapsed); average path velocity (VAP; the spatially averaged path that eliminates the wobble of the sperm head), straight line velocity (VSL; the straight-line distance from beginning to end of track divided by time taken), beat cross frequency (BCF, frequency of sperm head crossing sperm average path), the amplitude of lateral head displacement (ALH; the mean width of sperm head oscillation), straightness (STR=VSL/VAP×100); linearity (LIN=VSL/VCL×100; departure of sperm track from a straight line). Data from each individual cell track were recorded and analyzed. At least 200 motile sperm were analyzed for each aliquot sampled.

[2] = tested on: human sperm in donor semen; test: Sperm immobilizing activity in diluted semen / seminal plasma (Example 3); assay type: cell-based; details: 200 μM, 3 hours, CASA
Description: Following 3 hours of incubation, duplicate aliquots (4-μl) were used for CASA.

[3] = tested on: human sperm binding and penetration of zona-free hamster eggs; test: Zona-free hamster egg penetration assay (Example 6); assay type: cell-based; details: 25 μM or 100 μM, 3 hours preincubation; P<0.001
Description: The heterologous zona-free hamster egg penetration assay appears to correlate with the in vivo fertilizing capacity of human sperm as well as the ability of human sperm to fertilize intact human eggs in vitro.
15, 471 (1976)]. Motile fractions of sperm (n=4) obtained by 90-45% Percoll gradient centrifugation and wash were resuspended in BWW-3.5% BSA medium (pH 7.4) and divided into aliquots of 20×10^6 sperm/ml and allowed to capacitate for 24 hours. […] After exposure to drugs, the control and WHI-treated sperm suspensions were washed in BWW-3.5% BSA medium. Sperm motility following capacitation and washing in BWW-3.5% BSA medium was assessed by CASA.
Frozen hamster eggs (Charles River Laboratories, Wilmington, Mass.) were thawed and transferred to 35 mm glass bottom microwells (Mat Tek Corporation, Ashland, Mass.) in BWW medium. To remove zona, the washed eggs were treated with 0.05% trypsin (Irvine Scientific) in BWW medium for 20 min and then transferred to BWW-3.5% BSA medium and washed three times. Fifteen to 45 zona-free eggs per test were transferred in 100 μl of BWW-3.5% BSA medium under mineral oil. […] The number of sperm bound per egg, the number of swollen sperm heads per egg, and the percentage of penetrated eggs were determined for control and test sperm. […]

human sperm [4] = test: Time course of sperm immobilizing activity by CASA (Example 2); assay type: cell-based; details: 100 μM
Description: At timed intervals, duplicate aliquots (4-μl) were transferred to two 20 μm Microcell chambers and sperm motility was assessed by CASA.

[5] = tested on: cervicovaginal epithelium of female CD-1 mice; test: Cervicovaginal tissue inflammation after repetitive intravaginal application in mice (Example 8); details: for neutrophils in cervicovaginal squamous epithelia (immunofluorescence): 5% in cream base intravaginally; for mice with inflammatory response or disruption of the squamous epithelia: 5% in cream base intravaginally daily for 5 or 20 days, 10 mice
Description: In particular, 30 female CD-1 mice, 6 months old were randomly divided into two groups (A and B). Each group was further divided into three subgroups of 5 mice. […] After 5 and 20 days respectively, mice were killed by cervical dislocation, and tissues from the genitourinary tract were fixed in 10% buffered formalin. To determine the degree of inflammation and membrane integrity of squamous epithelia, conventional paraffin-embedded sections (6-pm) were prepared and stained with hematoxylin and eosin and observed under 300× magnification with a Leica microscope interfaced with an image analysis system (Scion), and images were transferred to Adobe Photoshop software for printout. The four stages of the estrous cycle were determined histologically.
Following antigen retrieval by heating (93° C. for 10 min in 10 mM sodium citrate buffer, pH 6.0), sections were preincubated with 10% normal goat serum in PBS, treated with optimal dilution (5 μg/ml) of the mAb followed by FITC-conjugated goat anti-rat IgG (Pierce Chemical Co., Rockford, IL). Each incubation step lasted 60 min with 5 min PBS washes between each step. The slides were counterstained with PI (1 μg/ml), washed in deionized water, mounted in anti-fade (BioRad), and visualized by laser confocal microscopy as described above. Negative controls were carried out by replacing the primary mAb with PBS or using rat IgG2 as control mAb

[6] = 3 hour incubation, mean ± SD of three experiments, read-out: EC50 (sperm motility, CASA) (converted)
[7] = Table 4, mean of three experiments, read-out: Sperm EC50

Compound	EC50 (human sperm [1]; [6]) [µM]	EC50 (human sperm [1]; [7]) [µM]	sperm motility after direct addition to semen diluted in PBS [2]	sperm binding to zona-free eggs [3]	exposure time to complete sperm immobilization (human sperm [4]) [min]	time required for 50% motility loss of progressively motile sperm (human sperm [4]) [min]	EC50 (human sperm [1]; Homo sapiens, Sperm, Table 4, mean of three experiments, read-out: Sperm EC50) [µM]	neutrophils in cervicovaginal squamous epithelia (immunofluorescence) [5]	mice with inflammatory response or disruption of the squamous epithelia [5]	EC50 (human sperm [1]; Homo sapiens, Sperm, 3 h, read-out: EC50 (sperm motility, CASA)) [µM]	EC50 (human sperm [1]; Homo sapiens, Sperm, read-out: Sperm EC50) [µM]
5-Bromo-6-methoxy-5,6-dihydro-3′-azidothymidine 5′-[Phenyl methoxyalaninyl phosphate] [WHI-04]	35 ± 5	35									
5-Bromo-6-methoxy-5,6-dihydro-3′-azidothymidine-5′-[(p-Fluorophenyl methoxyalaninyl phosphate] [WHI-06]	15	15									
5-bromo-6-methoxy-5,6-dihydro-3 ′-azidothymidine-5 ′-(p-methoxyphenyl) methoxyalaninyl phosphate [WHI-05]	24	24	complete loss of motility	significant inhibition	60	17					
CCCCCCCCCc1ccc(OCCOCCOCCOCCOCCOCCOCCOCCOCCO)cc1 [Compound N-9, nonoxynol-9, reference compound]							81	intense positive staining	9 of 10		
COC(=O)C(C)NP(=O)(OCC1OC(N2C(=O)NC(=O)C(C)(Br)C2OC)CC1N=[N+]=[N-])Oc1ccc(Br)cc1 (stereo not drawn) [WHI-07, 5-Bromo-6-methoxy-5,6-dihydro-3′-azidothymidine-5′-(p-Bromophenyl Methoxyalaninyl Phosphate)]			complete loss of motility	significant inhibition	30	6		absence of neutrophils	none of the 10 mice	5	5
